The values below come from US5807891A, “Antiviral ethers of aspartate protease substrate isosteres” (priority 1994, dated 1998).

Read-outs that look alike come from different tables or passages of the source.

The test system of series [1] is HIV-1/LAV in human peripheral mononuclear blood cells. Description: Antiviral activity in peripheral mononuclear blood cells infected with HIV-1, cumulative RT activity. It counts as cell-based. An excerpt: For the experiments using peripheral mononuclear blood cells, the cells are isolated from the blood of healthy HIV-seronegative human subjects using a combination of leukaphoresis and counter-current centrifugal elutriation in accordance with known methods (see Alteri, E., et al., Antimicrob. Agent Chemother. 37(10), 2087-92 (1993)).
The lymphocytotrophic isolate HIV-1/LAV (LAV.04/A.301), for example, is used as the virus (see Science 220, 868-71 (1983)).
The final concentration of free DMSO is less than 0.5%.
When peripheral mononuclear blood cells are used: The mixture of mononuclear cells (lymphocytes and monocytes), which is obtained as described above, is cultured, in the presence of 0.25 μg/ml phytohaemagglutinin (Wellcome Diagnostics, Temple Hill, Dartford, England), for two days in RPMI-1640 (GIBCO, Paisley, Scotland), 50 mU/ml penicillin, 50 μg/ml streptomycin (ANIMED, Muttenz, Switzerland), 2 mM L-glutamine (AMIMED, Muttenz, Switzerland) and 10 mM HEPES buffer (GIBCO, Paisley, Scotland). Successful activation is monitored by measuring the increase in cell size (scattergram, FCM analysis). The cells are resuspended in complete medium containing 10% human AB serum (Sigma, St. Louis, U.S.A.) and infected with HIV-1 for 6 h. After the viral adsorption, the cells are washed and resuspended in complete medium which is supplemented with 100 U/ml human recombinant IL-2 (Genzyme, Cambridge, U.S.A.). 9×10^4 cells are plated out per well (0.3 ml) in 96-well plates having U-shaped well bottoms. The antiviral compounds are added either alone or in combination to sets of five cell cultures in each case (pentaplicates) directly following the infection. Two thirds of the culture medium with or without antiviral compound(s) are replaced every three days. The test is concluded on day 13 after infection. The progress of the viral infection is measured by determining the RT activity as described above for the cell lines.
The activities of the individual compounds, and the combinations, specified in the title, in the peripheral mononuclear blood cell culture are determined using the method described above in association with the description of the pharmacological properties. The measurement result is expressed as the cumulative activity of the reverse transcriptase (RT), in cpm/1.25 μl (number of measured ^32 P disintegrations per 1.25 μl of test mixture and minute) on day 17 after the infection. […] The test compound(s) is/are re-added in associated with each change of the medium (on days 0, 3, 6, 10 and 13): […]

The test system of series [2] is H9/HIV-1/IIIB cells cocultured with CEM-SS cells. The series is described as follows: Antiviral activity in coculture of CEM-SS cells and permanently infected H9/HIV-1/IIIB cells, RT activity. It counts as cell-based. The conditions noted are these: Human immunodeficiency virus 1, IIIB, 96 h; for inhibition at 0.0125 µM: 12.5 nM. How it is done: The final concentration of free DMSO is less than 0.5%. When using cell lines: The cell lines are maintained in complete culture medium of the following composition: RPMI 1640 (GIBCO, Paisley, Scotland), supplemented with 10% foetal calf serum (SEROMED, Berlin, Germany), 10 mM 4-(2-hydroxyethyl)piperazine-1-ethanesulfonic acid(=HEPES) and 2 mM L-glutamine (AMIMED, Muttenz, Switzerland). […] The test compounds are tested as individual substances or as a combination of two active substances in defined concentration ratios. H9/HIV-1/IIIB cells are mixed, after having been washed twice and having been suspended in fresh medium, with CEM-SS cells in a ratio of 1:50. 100 μl of the cell mixture are dispensed into each well of 96-well tissue culture plates with the wells in each case containing 400 H9/HIV-1/IIIB cells and 2×10^4 CEM-SS cells. Immediately after the cells have been dispensed, two-fold serial dilutions of the test compounds are added (100 μl per well) in each case in sets of six. Instead of this, 100 μl of medium are added to each well for the virus control (VC); CEM-SS cells on their own (without H9/HIV-1/IIIB cells) are used as the control (CC). The final volume is 200 μl/well. […] The virus production is determined as the virus-associated activity of the reverse transcriptase (RT) in accordance with the following method, which has already been described above (see […]., et al., Antimicrob. Agent Chemother. 37(10), 2087-92 (1993)): When carrying out the measurement, 30 μl of reverse transcriptase cocktail are added to each well. The reverse transcriptase cocktail consists of 50 mM Tris (α,α,α-tris(hydroxymethyl)methylamine, Ultra pur, Merck, Germany), pH 7.8; 75 mM KCl, 2 mM dithiothreitol, 5 mM MgCl2; 0.1% Nonidet P-40 (detergent; Sigma, Switzerland), 0.8 mM EDTA, 10 μg/ml poly-A (Pharmacia, Uppsala, Sweden) and 0.16 μg/ml oligo(T)(=pdT(12-18), Pharmacia, Uppsala, Sweden) as template primer. The mixture is filtered through a 0.45 μm Acrodisc filter (Gelman Sciences Inc., Ann Arbor, U.S.A.) and stored at -20° C. […] After mixing, the plate is incubated at 37° C. for 1.5 h. 5 μl of the reaction mixture are transferred to DE81 paper (Whatman, one filter per well). The dried filters are washed three times for 5 min with 300 mM NaCl/25 mM trisodium citrate and then once with ethanol, and air-dried once again. The radioactivity on the filters is measured in a Packard Matrix 96-well counter (Packard, Zurich, Switzerland). The antiretroviral effect is given as the % reduction in RT activity as compared with the VC values. The activities of the individual compounds, and the combinations, mentioned in the title, in the coculture of the CEM-SS cell line and the permanently infected cell line H9/HIV-1/IIIB are determined using the method described above in association with the description of the pharmacological properties. The measurement result is expressed as % reduction of the reverse transcriptase (RT) activity. The results are presented in the following table; measurement results which confirm the occurrence of synergism are emphasized by underlining: […]

In series [3] the test system is HIV protease. The following applies: cited from earlier work.
The test system of series [4] is CD4 lymphocytes in the blood. The following applies: AIDS patients; cited from earlier work.
The conditions of series [5]: in vivo, po; cited from earlier work.
The conditions of series [6]: in vivo; cited from earlier work.
Series [7] has as its system viral replication. The following applies: cited from earlier work.

`COCCNC(=O)[C@@H](NC(=O)[C@H](Cc1ccc(OC)c(OC)c1OC)C[C@H](O)[C@H](Cc1ccccc1)NC(=O)OC(C)(C)C)C(C)C` [Example 47, 5(S)-(Boc-Amino)-4(S)-hydroxy-6-phenyl-2(R)-[(2,3,4-trimethoxyphenyl)methyl]hexanoyl-(L)-Val-N-(2-methoxyethyl)amide]: the “Cumulative RT activity on day 17 after the infection” value is recorded as 7909 cpm/μl in series [1] (Example 47 concentration 7.5 alone (unit not given)); 9132 cpm/μl in series [1] (Example 47 concentration 15 alone (unit not given)); 8457 cpm/μl in series [1] (Example 47 concentration 30 alone (unit not given)); 1823 cpm/μl in series [1] (Example 47 concentration 60 alone (unit not given)); 49 cpm/μl in series [1] (Example 47 concentration 120 alone (unit not given)). In series [2] (3.125 nM, coculture, day 4, read-out: % Inhibition of the RT activity by Example 47 title compound alone), the inhibition at 0.003125 µM is 2.7%. Further, the inhibition at 0.00625 µM in series [2] (6.25 nM, coculture, day 4, read-out: % Inhibition of the RT activity by Example 47 title compound alone) amounted to 1.3%. Also, the inhibition at 0.0125 µM in series [2] (coculture, day 4, read-out: % Inhibition of the RT activity by Example 47 title compound alone) worked out at 52%.

In the case of `CC(C)(C)NC(=O)[C@@H]1CN(Cc2cccnc2)CCN1C[C@@H](O)C[C@@H](Cc1ccccc1)C(=O)N[C@H]1c2ccccc2C[C@H]1O` [Indinavir], in series [2] (coculture, day 4, read-out: % Inhibition of the RT activity by Indinavir alone), the inhibition at 0.0125 µM worked out at 3.2%. The inhibition at 0.025 µM in series [2] (25 nM, coculture, day 4, read-out: % Inhibition of the RT activity by Indinavir alone) was 59.7%.

In the case of `CC(C)(C)NC(=O)[C@@H]1C[C@@H]2CCCC[C@@H]2CN1C[C@@H](O)[C@H](Cc1ccccc1)NC(=O)[C@H](CC(N)=O)NC(=O)c1ccc2ccccc2n1` [Saquinavir, N-tert-butyldecahydro-2-[2(R)-hydroxy-4-phenyl-3(S)-[[N-2-quinolylcarbonyl-L-asparaginyl]amino]butyl]-(4aS,8aS)-isoquinoline-3(S)-carboxamide], the “effect on HIV protease in vitro” value in series [3] was “inhibitory effect”. Besides, the “surrogate marker (titre of the CD4 lymphocytes in the blood)” value in series [4] is “first positive effects”. Moreover, the blood levels entry in series [5] is reported as “useful blood levels were achieved”; in series [6] it was “useful blood levels were also achieved”. Besides, the inhibition at 0.00626 µM in series [2] (read-out: % Inhibition of the RT activity by Saquinavir alone) was found to be 93.8%. Moreover, the inhibition at 0.00078 µM in series [2] (read-out: % Inhibition of the RT activity by Saquinavir alone, 0.78 nM, coculture, day 4) is 6.6%. Moreover, the inhibition at 0.00156 µM in series [2] (read-out: % Inhibition of the RT activity by Saquinavir alone, 1.56 nM, coculture, day 4) amounted to 14.7%. Moreover, in series [2] (read-out: % Inhibition of the RT activity by Saquinavir alone, 3.125 nM, coculture, day 4), the inhibition at 0.003125 µM amounted to 39.3%. The “viral replication in cell experiments” value in series [7] was “suppressed viral replication”.

As usually defined, the inhibition is how much of the control response was suppressed.
